Assay results reported in paper PMC6253765, “Synthesis and Herbicidal Activities of Novel 4-(4-(5-methyl-3-arylisoxazol-4-yl)thiazol-2-yl)piperidyl Carboxamides and Thiocarboxamides” (Molecules, 2009).

Target: T1, D1 protease (CtpA) (Spinacia oleracea, UniProt Q36792)
T1 construct: native spinach CtpA protein purified from spinach thylakoid
T1 sequence (Q36792 147-539): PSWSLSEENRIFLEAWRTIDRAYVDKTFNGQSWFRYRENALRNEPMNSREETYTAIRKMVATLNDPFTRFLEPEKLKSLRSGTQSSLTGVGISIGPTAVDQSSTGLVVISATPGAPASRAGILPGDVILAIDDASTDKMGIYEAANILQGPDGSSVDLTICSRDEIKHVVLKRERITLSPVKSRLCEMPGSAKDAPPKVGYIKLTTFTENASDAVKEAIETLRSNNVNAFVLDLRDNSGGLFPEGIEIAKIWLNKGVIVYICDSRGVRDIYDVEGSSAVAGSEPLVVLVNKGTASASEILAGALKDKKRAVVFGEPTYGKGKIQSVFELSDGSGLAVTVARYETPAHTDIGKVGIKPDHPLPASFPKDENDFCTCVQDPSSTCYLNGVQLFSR
Test: HPLC assay of cleavage of S24 peptide substrate; Dixon plot
Assay type: biochemical

`CCCCNC(=O)N1CCC(c2nc(-c3c(-c4ccccc4F)noc3C)cs2)CC1` [4m, N-butyl-4-(4-(3-(2-fluorophenyl)-5-methylisoxazol-4-yl)thiazol-2-yl)piperidine-1-carboxamide] was tested, and the Ki was 1300 nM.
